# Test results: ChEMBL document CHEMBL1129930, “Analogues of methotrexate in rheumatoid arthritis. 2. Effects of 5-deazaaminopterin, 5,10-dideazaaminopterin, and analogues on type II collagen-induced arthritis in mice” (J Med Chem, 1997)
# Key:
# Mus musculus [1] = assay: Incidence of disease (mouse type II collagen) was scored as the percentage of animals within each experimental group that exhibited joint or limb inflammation on day 30 at intraperitoneal dose of 0.19 mg/kg (deaths observed at 1.5 mg/kg); type: functional
# Mus musculus [2] = assay: Tested for antiinflammatory activity on mouse type II collagen arthritis as Paw swelling of all animals in each group on day 37 at intraperitoneal dose of 0.38 mg/kg; type: functional
# Mus musculus [3] = assay: Incidence of disease (mouse type II collagen) was scored as the percentage of animals within each experimental group that exhibited joint or limb inflammation on day 30 at intraperitoneal dose of 0.094 mg/kg (deaths observed at 1.5 mg/kg); type: functional
# Mus musculus [4] = assay: Tested for antiinflammatory activity on mouse type II collagen arthritis as Paw swelling of all animals in each group on day 37 at intraperitoneal dose of 0.19 mg/kg; type: functional
# Mus musculus [5] = assay: Incidence of disease (mouse type II collagen) was scored as the percentage of animals within each experimental group that exhibited joint or limb inflammation on day 23 at intraperitoneal dose of 0.19 mg/kg (deaths observed at 1.5 mg/kg); type: functional
# Mus musculus [6] = assay: Incidence of disease (mouse type II collagen) was scored as the percentage of animals within each experimental group that exhibited joint or limb inflammation on day 44 at intraperitoneal dose of 0.75 mg/kg (deaths observed at 1.5 mg/kg); type: functional
# Mus musculus [7] = assay: Tested for antiinflammatory activity on mouse type II collagen arthritis as Paw swelling of all animals in each group on day 37 at intraperitoneal dose of 0.047 mg/kg; type: functional
# Mus musculus [8] = assay: Incidence of disease (mouse type II collagen) was scored as the percentage of animals within each experimental group that exhibited joint or limb inflammation on day 37 at intraperitoneal dose of 0.094 mg/kg (deaths observed at 1.5 mg/kg); type: functional
# Mus musculus [9] = assay: Incidence of disease (mouse type II collagen) was scored as the percentage of animals within each experimental group that exhibited joint or limb inflammation on day 44 at intraperitoneal dose of 0.024 mg/kg (deaths observed at 1.5 mg/kg); type: functional
# Mus musculus [10] = assay: Incidence of disease (mouse type II collagen) was scored as the percentage of animals within each experimental group that exhibited joint or limb inflammation on day 37 at intraperitoneal dose of 0.19 mg/kg (deaths observed at 1.5 mg/kg); type: functional
# Mus musculus [11] = assay: Tested for antiinflammatory activity on mouse type II collagen arthritis as Paw swelling of all animals in each group on day 30 at intraperitoneal dose of 0.047 mg/kg; type: functional
# Mus musculus [12] = assay: Incidence of disease (mouse type II collagen) was scored as the percentage of animals within each experimental group that exhibited joint or limb inflammation on day 44 at intraperitoneal dose of 0.047 mg/kg (deaths observed at 1.5 mg/kg); type: functional
# Mus musculus [13] = assay: Tested for antiinflammatory activity on mouse type II collagen arthritis as Paw swelling of all animals in each group on day 44 at intraperitoneal dose of 0.38 mg/kg; type: functional
# Mus musculus [14] = assay: Tested for antiinflammatory activity on mouse type II collagen arthritis as Paw swelling of all animals in each group on day 23 at intraperitoneal dose of 0.094 mg/kg; type: functional
# Mus musculus [15] = assay: Incidence of disease (mouse type II collagen) was scored as the percentage of animals within each experimental group that exhibited joint or limb inflammation on day 37 at intraperitoneal dose of 0.75 mg/kg (deaths observed at 1.5 mg/kg); type: functional
# L1210 = assay: Concentration required to inhibit the growth of L1210 cells.; type: functional, cell-based; conditions: Mus musculus
smiles,measurement,setting,value
CCc1c(CN(C)c2ccc(C(=O)NC(CCC(=O)O)C(=O)O)cc2)cnc2nc(N)nc(N)c12 (stereo unspecified),Animals,Mus musculus [1],12%
same,Paw swelling,Mus musculus [2],2.17 mm
same,Animals,Mus musculus [3],12%
same,Paw swelling,Mus musculus [4],2.17 mm
same,Animals,Mus musculus [5],0%
same,Animals,Mus musculus [6],14%
same,Paw swelling,Mus musculus [7],2.33 mm
same,Animals,Mus musculus [8],25%
same,Animals,Mus musculus [9],25%
same,Animals,Mus musculus [10],12%
same,Paw swelling,Mus musculus [11],2.21 mm
same,Animals,Mus musculus [12],88%
same,Paw swelling,Mus musculus [13],2.15 mm
same,Paw swelling,Mus musculus [14],2.15 mm
same,Animals,Mus musculus [15],14%
same,IC50,L1210,1 nM
